Drawing on PubChem BioAssay (NCI), this text covers TGI and GI50 for 14 molecules.

“And” between values parts separate entries of the source, which are not always exact repeats. Equal values may be shown once.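 1) Cells in 96-well plates. 2) Compound, 48 h, 5 concentrations. 3) Linear interpolation between surrounding doses. 4) Unreached endpoint = highest concentration. Here, GI50 denotes the concentration required for 50% inhibition of growth. TGI denotes the concentration required for complete inhibition of growth.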

Holding throughout (test): NCI-60 cell line screen, 48 h
Assay [1] deals with HOP-92 NSCLC.
The subject of assay [2] is IGROV1 ovarian.
The test system of assay [3] is M14 melanoma.
Assay [4] relates to MALME-3M melanoma.
In assay [5] the test system is SF-539 CNS.
Assay [6] concerns SK-MEL-28 melanoma.
Assay [7] relates to SNB-75 CNS.
Assay [8] concerns UACC-62 melanoma.
Assay [9] relates to EKVX NSCLC.
In assay [10] the test system is MDA-N.

Consider `COc1cccc(/C=N/[N-]C(N)=O)c1[O-].[Ni+2].[OH3+].c1cnc2c(c1)ccc1cccnc12`, for which the TGI in assay [1], in assay [2], in assay [3], in assay [4], in assay [5] and in [6] was over 100 µM throughout. The TGI in [7] and in [8] was over 100 µM in each case.

Take `Oc1[nH]c2ccccc2c1N=Nc1nc(-c2ccc(Cl)c(Cl)c2)cs1`: the TGI in assay [9], in assay [1], in [2], in assay [3], in [10] and in [5] was over 100 µM in each case. Moreover, the TGI in assay [6] and in assay [7] was over 100 µM in each case.

With `CN(C)CCSC(=Nc1ccccc1)N1CCCCC1`, the TGI in assay [1] is 27.5 µM; in assay [2], 29.8 µM; in assay [3], 29.9 µM; in assay [4], 35.2 µM; in assay [5], 38.1 µM; in assay [6], 28 µM. Moreover, the TGI in assay [7] is 59.6 µM; in assay [8] it was 30.4 µM.

For `OC1(c2cc3ccccc3s2)CCCCC1`, the TGI was 71.7 µM in [9]; over 100 µM in assay [1]; over 100 µM in assay [2]; over 100 µM in assay [3]; over 100 µM in assay [10]; over 100 µM in assay [5]. Further, the TGI in [6], in assay [7] and in assay [8] was over 100 µM each time.

Consider `Cc1ccc(C(C2C(=O)N(C)C(=O)N(C)C2=O)C(F)(F)C(=O)N(C)C)cc1` (stereo not drawn), for which the TGI in assay [9], in assay [1], in assay [3], in assay [4], in [5] and in [6] was over 100 µM each time. The TGI in assay [7] and in assay [8] was over 100 µM in each case.

On to `NCCNc1cccc2ccccc12`, for which the TGI in assay [9], in [1], in assay [2], in assay [3], in assay [4] and in [5] was over 100 µM each time. In addition, in assay [8], the TGI was over 100 µM.

`CC(CO)C1C[C@H](O)[C@@]2(C)CC(=O)C=C(CO)[C@@H]2C1` (stereo partly drawn): the TGI in assay [9], in assay [1], in [2], in assay [3], in [10] and in assay [5] was over 100 µM throughout. Further, the TGI in assay [6], in assay [7] and in assay [8] was over 100 µM each time.

For the molecule `COC(=O)c1cc(C#N)[nH]c1-c1ccc(C)s1`, the TGI in assay [9] was 78.6 µM; in assay [1] it was 82.1 µM; in assay [3], over 100 µM; in assay [10] it was over 100 µM; in assay [5], over 100 µM; in assay [6], over 100 µM. The TGI in assay [7] and in assay [8] was over 100 µM throughout.

On to `c1ccc2c(c1)CCc1cc3cc4c(nc3nc1-2)-c1ccccc1CC4`, for which the TGI in assay [9], in assay [2], in assay [3], in assay [4], in assay [5] and in assay [6] was over 100 µM each time. The TGI in assay [7] and in assay [8] was over 100 µM each time.

On to `N#C[S-].[Nd+3].c1ccc(-c2ccccn2)nc1.c1ccc(-c2ccccn2)nc1.c1ccc(-c2ccccn2)nc1`, for which the GI50 is 5.78 µM in assay [9]; 11.6 µM in assay [2]; 2.26 µM in assay [3]; 18.5 µM in [4]; 3.78 µM in assay [5]; 13.7 µM in [6]. The GI50 is 5.69 µM in assay [7] and 5.26 µM in [8]. The TGI in [9] is over 100 µM; in assay [2], 42.6 µM; in assay [3], 5.96 µM; in assay [4], 68.4 µM; in [5], over 100 µM; in [6], over 100 µM. Further, the TGI in assay [7] amounted to 84.4 µM; in [8], 28.2 µM.

Consider `O=c1[nH]c(=O)n(Cc2ccccc2CO)cc1Sc1ccccc1`, for which the TGI in assay [9] was 60.8 µM; in [1] it was over 100 µM; in assay [2], 29 µM; in assay [3] it was 41.2 µM; in assay [4], 41.5 µM; in assay [5], 93.9 µM. The TGI in assay [6], in assay [7] and in assay [8] was over 100 µM in each case.

On to `NC(=O)C#CC(N)=O`, for which the GI50 in [9] is 16.1 µM and 18.1 µM and > 100 µM; in assay [4], 5.74 µM; in assay [6], 8.21 µM and 5.85 µM. Further, the TGI in assay [9] was 29.7 µM and 35 µM and > 100 µM; in assay [1] it was 5.51 µM and 35.7 µM; in [2] it was 213 µM and 189 µM and > 100 µM; in assay [3], 37.5 µM; in assay [4], 19.7 µM and 18.1 µM; in [5] it was 46.3 µM and 68.9 µM. Further, the TGI is 20 µM and 15.6 µM and 27 µM in [6]; 79.8 µM and > 100 µM in assay [7]; 28.4 µM and 29.5 µM and 43 µM in [8].

Turning to `C=CCNC(=O)NC1=CSC2=NC(=O)C3(NN12)c1ccccc1-c1ccccc13`, the TGI in assay [9], in assay [1], in [2], in assay [3], in assay [4] and in assay [5] was over 10 µM each time. The TGI in assay [6], in [7] and in assay [8] was over 10 µM throughout.

Take `Cc1cccc(C2=NC(C)(C)C(C)(C)N=C2c2cccc(C)n2)n1`: the TGI in assay [9], in assay [1], in [2], in assay [3], in assay [4] and in assay [5] was over 100 µM throughout. Also, the TGI in assay [6], in [7] and in assay [8] was over 100 µM each time.
